Data taken from patent US20240376085A1 (Janssen Pharmaceutica NV, priority 2021, published 2024).
pIC50: −log10 of the molar value.

Assays:
IL-17A : IL-17RA binding = molecular target: T1, IL-17A : IL-17RA binding (Homo sapiens, UniProt Q16552, K93Q); assay: IL-17A(FLAG-tagged):IL-17RA(His-tagged) binding disruption Eu-HTRF assay, Protocol 1; conditions: FLAG-IL-17A 2.5 nM at 2x final concentration; average if tested more than once
T1 construct: Name: IL-17A-Flag
Method in brief: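 IC50 came from a one-site competition fit of the acceptor/donor (665/620 nm) HTRF ratio. His-tagged IL-17RA, Eu-anti-FLAG and D2-anti-His were added after a 1 h rt compound preincubation with FLAG-tagged IL-17A dimer in PBS/0.01% Triton X-100, followed by 2 h at rt before reading.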

[1] = tested on: IL-17A-induced G-CSF production in human normal keratinocyte (NHK); assay: NHK assay: IL-17A-induced G-CSF production in normal human keratinocytes; type: cell-based; conditions: 24 h, IL-17A 5 ng/mL, average if tested more than once
Method in brief: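 Stimulus rhIL-17A 5 ng/mL final, premixed 1 h rt with compound; adult NHK, 5% FBS, 0.2% DMSO. Viability by CellTiter-Glo vs DMSO.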

T1 sequence (Q16552 with tags, fused parts or gaps K93Q): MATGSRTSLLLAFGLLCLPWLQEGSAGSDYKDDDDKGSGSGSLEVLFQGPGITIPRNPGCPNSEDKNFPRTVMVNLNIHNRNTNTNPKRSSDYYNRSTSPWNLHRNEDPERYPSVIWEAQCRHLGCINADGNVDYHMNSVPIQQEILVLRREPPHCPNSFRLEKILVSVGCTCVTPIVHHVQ

Row | Compound | pIC50 (IL-17A : IL-17RA binding) | pIC50 ([1]; Homo sapiens, Keratinocyte) | pIC50 [1]
1 | C[C@@H](NC(=O)CCC(F)(F)F)c1ccc2[nH]c([C@@H](NC(=O)CC3CC3(F)F)C3CCC(F)(F)CC3)nc2c1 (single isomer, unassigned) [Example 107, N—((R)-1-(2-((S)-(4,4-Difluorocyclohexyl)(2-((R*)-2,2-difluorocyclopropyl)acetamido)methyl)-1H-benzo[d]imidazol-5-yl)ethyl)-4,4,4-trifluorobutanamide] | < 7.00 | < 7.00 | –
2 | C[C@@H](NC(=O)CCC(F)(F)F)c1ccc2[nH]c([C@@H](NC(=O)CC3CC3(F)F)C3CCC(F)(F)CC3)nc2c1 (single isomer, unassigned) [Example 108, N—((R)-1-(2-((S)-(4,4-Difluorocyclohexyl)(2-((S*)-2,2-difluorocyclopropyl)acetamido)methyl)-1H-benzo[d]imidazol-5-yl)ethyl)-4,4,4-trifluorobutanamide] | < 7.00 | – | < 7.00
3 | C[C@@H](NC(=O)CCC(F)(F)F)c1ccc2[nH]c([C@@H](NC(=O)[C@@H]3CC[C@@H]3CF)C3CCC(F)(F)CC3)nc2c1 (single isomer, unassigned) [Example 113] | < 7.00 | < 7.00 | –
4 | C[C@@H](NC(=O)CCC(F)(F)F)c1ccc2[nH]c([C@@H](NC(=O)[C@H]3CC[C@@H]3CF)C3CCC(F)(F)CC3)nc2c1 (single isomer, unassigned) [Example 114] | < 7.00 | < 7.00 | –
5 | CC(CC(=O)N[C@H](C)c1ccc2nc([C@@H](NC(=O)c3ccnn3CC(F)(F)F)C3CCC(F)(F)CC3)[nH]c2c1)C(F)(F)F (single isomer, unassigned) [Example 133, N—((S)-(4,4-Difluorocyclohexyl)(6-((R)-1-((R*)-4,4,4-trifluoro-3-methylbutanamido)ethyl)-1H-benzo[d]imidazol-2-yl)methyl)-1-(2,2,2-trifluoroethyl)-1H-pyrazole-5-carboxamide] | < 7.00 | < 7.00 | –
6 | CC(CC(=O)N[C@H](C)c1ccc2nc([C@@H](NC(=O)c3ccnn3CCC(F)(F)F)C3CCC(F)(F)CC3)[nH]c2c1)C(F)(F)F (single isomer, unassigned) [Example 134, N—((S)-(4,4-Difluorocyclohexyl)(6-((R)-1-((R*)-4,4,4-trifluoro-3-methylbutanamido)ethyl)-1H-benzo[d]imidazol-2-yl)methyl)-1-(3,3,3-trifluoropropyl)-1H-pyrazole-5-carboxamide] | < 7.00 | < 7.00 | –
7 | CC(C)n1nccc1C(=O)N[C@H](c1nc2ccc([C@@H](C)NC(=O)CC(C)C(F)(F)F)cc2[nH]1)C1CCC(F)(F)CC1 (single isomer, unassigned) [Example 135, N—((S)-(4,4-Difluorocyclohexyl)(6-((R)-1-((R*)-4,4,4-trifluoro-3-methylbutanamido)ethyl)-1H-benzo[d]imidazol-2-yl)methyl)-1-isopropyl-1H-pyrazole-5-carboxamide] | < 7.00 | > 7.30 | –
8 | CC(CC(=O)N[C@H](C)c1ccc2nc([C@@H](NC(=O)c3cc(F)ccc3F)C3CCC(F)(F)CC3)[nH]c2c1)C(F)(F)F (single isomer, unassigned) [Example 136, N—((S)-(4,4-Difluorocyclohexyl)(6-((R)-1-((R*)-4,4,4-trifluoro-3-methylbutanamido)ethyl)-1H-benzo[d]imidazol-2-yl)methyl)-2,5-difluorobenzamide] | < 7.00 | < 7.00 | –
9 | CC(CC(=O)N[C@H](C)c1ccc2nc([C@@H](NC(=O)c3ccnn3CC(F)(F)F)C3CCC(F)(F)CC3)[nH]c2c1)C(F)(F)F (single isomer, unassigned) [Example 137, N—((S)-(4,4-Difluorocyclohexyl)(6-((R)-1-((S*)-4,4,4-trifluoro-3-methylbutanamido)ethyl)-1H-benzo[d]imidazol-2-yl)methyl)-1-(2,2,2-trifluoroethyl)-1H-pyrazole-5-carboxamide] | < 7.00 | – | 7.00 to 7.30
10 | CC(CC(=O)N[C@H](C)c1ccc2nc([C@@H](NC(=O)c3ccnn3CCC(F)(F)F)C3CCC(F)(F)CC3)[nH]c2c1)C(F)(F)F (single isomer, unassigned) [Example 138, N—((S)-(4,4-Difluorocyclohexyl)(6-((R)-1-((S*)-4,4,4-trifluoro-3-methylbutanamido)ethyl)-1H-benzo[d]imidazol-2-yl)methyl)-1-(3,3,3-trifluoropropyl)-1H-pyrazole-5-carboxamide] | < 7.00 | – | 7.00 to 7.30
11 | CC(C)n1nccc1C(=O)N[C@H](c1nc2ccc([C@@H](C)NC(=O)CC(C)C(F)(F)F)cc2[nH]1)C1CCC(F)(F)CC1 (single isomer, unassigned) [Example 139, N—((S)-(4,4-Difluorocyclohexyl)(6-((R)-1-((S*)-4,4,4-trifluoro-3-methylbutanamido)ethyl)-1H-benzo[d]imidazol-2-yl)methyl)-1-isopropyl-1H-pyrazole-5-carboxamide] | < 7.00 | – | > 7.30
12 | CC(CC(=O)N[C@H](C)c1ccc2nc([C@@H](NC(=O)c3cc(F)ccc3F)C3CCC(F)(F)CC3)[nH]c2c1)C(F)(F)F (single isomer, unassigned) [Example 140, N—((S)-(4,4-Difluorocyclohexyl)(6-((R)-1-((S*)-4,4,4-trifluoro-3-methylbutanamido)ethyl)-1H-benzo[d]imidazol-2-yl)methyl)-2,5-difluorobenzamide] | < 7.00 | – | < 7.00
13 | CC(C)n1nccc1C(=O)NC(COC(C)(C)C(C)(F)F)c1nc2ccc([C@H](NC(=O)CC3CC(F)(F)C3)C3CC3)cc2[nH]1 (single isomer, unassigned) [Example 149, N—((R*)-1-(6-((R)-Cyclopropyl(2-(3,3-difluorocyclobutyl)acetamido)methyl)-1H-benzo[d]imidazol-2-yl)-2-((3,3-difluoro-2-methylbutan-2-yl)oxy)ethyl)-1-isopropyl-1H-pyrazole-5-carboxamide] | < 7.00 | > 7.30 | –
14 | CC(OCC(NC(=O)c1nonc1C1CC1)c1nc2ccc([C@H](NC(=O)CC3CC(F)(F)C3)C3CC3)cc2[nH]1)C(F)(F)F (single isomer, unassigned) [Example 153, 4-Cyclopropyl-N-((1R*)-1-(6-((R)-cyclopropyl(2-(3,3-difluorocyclobutyl)acetamido)methyl)-1H-benzo[d]imidazol-2-yl)-2-((1,1,1-trifluoropropan-2-yl)oxy)ethyl)-1,2,5-oxadiazole-3-carboxamide] | > 7.30 | < 7.00 | –
15 | C[C@H](OCC(NC(=O)c1nonc1C1CC1)c1nc2ccc([C@H](NC(=O)CC3CC(F)(F)C3)C3CC3)cc2[nH]1)C(F)(F)F (single isomer, unassigned) [Example 154, 4-Cyclopropyl-N—((R*)-1-(6-((R)-cyclopropyl(2-(3,3-difluorocyclobutyl)acetamido)methyl)-1H-benzo[d]imidazol-2-yl)-2-(((S)-1,1,1-trifluoropropan-2-yl)oxy)ethyl)-1,2,5-oxadiazole-3-carboxamide] | > 7.30 | 7.00 to 7.30 | –
16 | CC(C)n1nccc1C(=O)NC(CO[C@H](C)C(F)(F)F)c1nc2ccc([C@H](NC(=O)CC3CC(F)(F)C3)C3CC3)cc2[nH]1 (single isomer, unassigned) [Example 157, N—((R*)-1-(6-((R)-Cyclopropyl(2-(3,3-difluorocyclobutyl)acetamido)methyl)-1H-benzo[d]imidazol-2-yl)-2-(((R)-1,1,1-trifluoropropan-2-yl)oxy)ethyl)-1-isopropyl-1H-pyrazole-5-carboxamide] | > 7.30 | 7.00 to 7.30 | –
17 | CC(C)n1nccc1C(=O)NC(COC(C)(C)C(F)(F)F)c1nc2ccc([C@H](NC(=O)CC3CC(F)(F)C3)C3CC3)cc2[nH]1 (single isomer, unassigned) [Example 162, N—((S*)-1-(6-((R)-Cyclopropyl(2-(3,3-difluorocyclobutyl)acetamido)methyl)-1H-benzo[d]imidazol-2-yl)-2-((1,1,1-trifluoro-2-methylpropan-2-yl)oxy)ethyl)-1-isopropyl-1H-pyrazole-5-carboxamide] | < 7.00 | < 7.00 | –
18 | CC(C)(OCC(NC(=O)c1nonc1C1CC1)c1nc2ccc([C@H](NC(=O)CC3CC(F)(F)C3)C3CC3)cc2[nH]1)C(F)(F)F (single isomer, unassigned) [Example 163, 4-Cyclopropyl-N—((S*)-1-(6-((R)-cyclopropyl(2-(3,3-difluorocyclobutyl)acetamido)methyl)-1H-benzo[d]imidazol-2-yl)-2-((1,1,1-trifluoro-2-methylpropan-2-yl)oxy)ethyl)-1,2,5-oxadiazole-3-carboxamide] | < 7.00 | < 7.00 | –
19 | COCC(NC(=O)CC1CC(F)(F)C1)c1ccc2[nH]c([C@H](COC(C)(C)C(F)(F)F)NC(=O)c3nonc3C3CC3)nc2c1 (single isomer, unassigned) [Example 165, 4-Cyclopropyl-N—((R)-1-(5-((S*)-1-(2-(3,3-difluorocyclobutyl)acetamido)-2-methoxyethyl)-1H-benzo[d]imidazol-2-yl)-2-((1,1,1-trifluoro-2-methylpropan-2-yl)oxy)ethyl)-1,2,5-oxadiazole-3-carboxamide] | < 7.00 | < 7.00 | –
